Laboratory results: ChEMBL document CHEMBL1201862, “PubChem BioAssay data set” (2004)
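Grown in 96-well plates, cells were treated for 48 hours with each compound at five concentrations. Insufficient inhibition: endpoint recorded as highest concentration tested. Here, GI50 denotes the concentration required for 50% inhibition of growth.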 Activity calls are given as the source filed them. Rule as the data show it: active = GI50 up to about 1.1 µM and inactive = higher.

Columns and labels:
Assay in all cases: NCI-60 cell line screen, 48 h
K562 = tested on: K562
OVCAR-8 = tested on: OVCAR-8
RPMI-8226 = tested on: RPMI-8226
SN12C = tested on: SN12C
A498 = tested on: A498
U-251 = tested on: U-251
SK-OV-3 = tested on: SK-OV-3
NCI-H522 = tested on: NCI-H522
HT-29 = tested on: HT-29
NCI-H226 = tested on: NCI-H226
SK-MEL-5 = tested on: SK-MEL-5
UACC-257 = tested on: UACC-257
SF-539 = tested on: SF-539
IGROV-1 = tested on: IGROV-1
Malme-3M = tested on: Malme-3M
HOP-62 = tested on: HOP-62
HL-60 = tested on: HL-60
SK-MEL-2 = tested on: SK-MEL-2

SMILES | GI50 (K562) | GI50 (OVCAR-8) | GI50 (RPMI-8226) | GI50 (SN12C) | GI50 (A498) | GI50 (U-251) | GI50 (SK-OV-3) | GI50 (NCI-H522) | GI50 (HT-29) | GI50 (NCI-H226) | GI50 (SK-MEL-5) | GI50 (UACC-257) | GI50 (SF-539) | GI50 (IGROV-1) | GI50 (Malme-3M) | GI50 (HOP-62) | GI50 (HL-60) | GI50 (SK-MEL-2)
COCCN1C2=CCCCC2=Nc2c1nc(N)[nH]c2=O | > 100 µM (inactive) | > 100 µM (inactive) | > 100 µM (inactive) | > 100 µM (inactive) | > 100 µM (inactive) | > 100 µM (inactive) | > 100 µM (inactive) | > 100 µM (inactive) | > 100 µM (inactive) | > 100 µM (inactive) | > 100 µM (inactive) | > 100 µM (inactive) | > 100 µM (inactive) | > 100 µM (inactive) | > 100 µM (inactive) | > 100 µM (inactive) | > 100 µM (inactive) | 
O=C(/C=C/c1ccccc1)CC1OC(=O)c2ccccc21 (stereo unspecified) | 75.5 µM (inactive) | > 100 µM (inactive) | 24.2 µM (inactive) |  | > 100 µM (inactive) | > 100 µM (inactive) | > 100 µM (inactive) | 31.3 µM (inactive) | > 100 µM (inactive) | 22.5 µM (inactive) | > 100 µM (inactive) | 81.8 µM (inactive) | 36.1 µM (inactive) | 80.7 µM (inactive) | > 100 µM (inactive) | > 100 µM (inactive) | 28.1 µM (inactive) | 46.3 µM (inactive)
CCC(C)(C)C(=O)O[C@H]1C[C@@H](C)C=C2C=C[C@H](C)[C@H](CC[C@@H]3C[C@@H](O)CC(=O)O3)[C@H]21 [SIMVASTATIN] | 17.6 µM (inactive) | 1.37 µM (inactive) | 8.2 µM (inactive) | 1.51 µM (inactive) | 0.902 µM (active) | 0.766 µM (active) | 1.72 µM (inactive) |  | 6.85 µM (inactive) |  |  | 17.3 µM (inactive) | 9.04 µM (inactive) | 0.647 µM (active) |  | 9.2 µM (inactive) | 3.01 µM (inactive) | 0.522 µM (active)
N#CC1CC(c2ccccc2)Nc2cc(Cl)ccc2N1 (stereo unspecified) | 9.14 µM (inactive) | 33 µM (inactive) | 6.31 µM (inactive) | 63.1 µM (inactive) | > 100 µM (inactive) | 30.7 µM (inactive) | > 100 µM (inactive) | 3.68 µM (inactive) | 24.4 µM (inactive) | > 100 µM (inactive) | 41.2 µM (inactive) | > 81.7 µM (inactive) | 38.3 µM (inactive) | 69.7 µM (inactive) | 24 µM (inactive) | 55.7 µM (inactive) | 4.1 µM (inactive) | 29.1 µM (inactive)
CCOP(=O)(OCC)OC(C#N)c1ccc(-c2ccccc2)cc1 (stereo unspecified) | 20.3 µM (inactive) | 19.5 µM (inactive) | 20.7 µM (inactive) | 19 µM (inactive) | 24.2 µM (inactive) | 15.2 µM (inactive) | 28.4 µM (inactive) | 14.9 µM (inactive) | 17.9 µM (inactive) | 31.6 µM (inactive) | 16 µM (inactive) | 20.8 µM (inactive) | 20.8 µM (inactive) | 36.3 µM (inactive) | 19.6 µM (inactive) | 34.5 µM (inactive) | 18.4 µM (inactive) | 36.3 µM (inactive)
CC1=C(C(=O)O)N2C(=O)[C@@H](NC(=O)C(c3ccccc3)N3CSC(=S)N(C(C)C)C3)C2SC1 (stereo partly specified) | 74.1 µM (inactive) | > 100 µM (inactive) | > 100 µM (inactive) | > 100 µM (inactive) | > 100 µM (inactive) | > 100 µM (inactive) | > 100 µM (inactive) | 30.4 µM (inactive) | > 100 µM (inactive) |  | > 100 µM (inactive) | > 100 µM (inactive) | > 100 µM (inactive) | > 100 µM (inactive) | > 100 µM (inactive) | > 100 µM (inactive) | > 100 µM (inactive) | > 100 µM (inactive)
N#Cc1cc([N+](=O)[O-])ccc1NC(=O)C(=O)C(C(=O)/C=C/c1ccccc1)C1OC(=O)c2ccccc21 (stereo unspecified) | 13.9 µM (inactive) | > 100 µM (inactive) |  | > 100 µM (inactive) | > 100 µM (inactive) | > 100 µM (inactive) | > 100 µM (inactive) | > 100 µM (inactive) | > 100 µM (inactive) | > 100 µM (inactive) | > 100 µM (inactive) | > 100 µM (inactive) | > 100 µM (inactive) | > 100 µM (inactive) | > 100 µM (inactive) | > 100 µM (inactive) | > 100 µM (inactive) | 
COc1cc(-c2c(C)c(C)nc(OC)c2C#N)cc(OC)c1OC | 58.7 µM (inactive) | > 100 µM (inactive) | 37.4 µM (inactive) | > 100 µM (inactive) | > 100 µM (inactive) | > 100 µM (inactive) | > 100 µM (inactive) |  | > 100 µM (inactive) | 24.9 µM (inactive) | > 100 µM (inactive) | 82.2 µM (inactive) | > 100 µM (inactive) | > 100 µM (inactive) | > 100 µM (inactive) | > 100 µM (inactive) | 24.4 µM (inactive) | > 100 µM (inactive)
CC1(C)COC(c2cccnc2/C=N/O)=N1 | > 100 µM (inactive) | > 100 µM (inactive) |  | > 100 µM (inactive) | > 100 µM (inactive) | > 100 µM (inactive) | > 100 µM (inactive) | > 100 µM (inactive) | > 100 µM (inactive) | > 100 µM (inactive) | > 100 µM (inactive) | > 100 µM (inactive) | > 100 µM (inactive) | > 100 µM (inactive) | > 100 µM (inactive) | > 100 µM (inactive) | > 100 µM (inactive) | > 100 µM (inactive)
CCCC1N2CCCCC2[C@@H]2c3[nH]c4ccccc4c3CCN12 (stereo partly specified) | > 100 µM (inactive) | > 100 µM (inactive) | > 100 µM (inactive) | > 100 µM (inactive) | > 100 µM (inactive) | > 100 µM (inactive) | > 100 µM (inactive) |  | > 100 µM (inactive) |  | > 100 µM (inactive) | > 100 µM (inactive) | > 100 µM (inactive) | > 100 µM (inactive) | 25.8 µM (inactive) | > 100 µM (inactive) | > 100 µM (inactive) | > 100 µM (inactive)
Oc1ccc2ccccc2c1/N=N/c1ccc(F)cc1 | > 100 µM (inactive) | > 100 µM (inactive) | > 100 µM (inactive) | 42.7 µM (inactive) | > 100 µM (inactive) | > 100 µM (inactive) | > 100 µM (inactive) | > 100 µM (inactive) | > 100 µM (inactive) |  | > 100 µM (inactive) |  | > 100 µM (inactive) | > 100 µM (inactive) | > 100 µM (inactive) | > 100 µM (inactive) | > 100 µM (inactive) | > 100 µM (inactive)
CC(C)(C)C(=O)C1CC(=O)c2ccccc2C1=O (stereo unspecified) | 40.6 µM (inactive) | 37 µM (inactive) | 23 µM (inactive) | 28.2 µM (inactive) | 42.3 µM (inactive) | 34 µM (inactive) | 27.1 µM (inactive) | 23.6 µM (inactive) |  | 35.2 µM (inactive) | 32.4 µM (inactive) | 18.2 µM (inactive) | 34.3 µM (inactive) | 33.7 µM (inactive) | 16.3 µM (inactive) | 25.2 µM (inactive) | 20.7 µM (inactive) | 10.6 µM (inactive)
COc1cc2ccc3c4ccccc4cnc3c2cc1OC | > 100 µM (inactive) | > 100 µM (inactive) | > 100 µM (inactive) | > 100 µM (inactive) |  | > 100 µM (inactive) | > 100 µM (inactive) | > 100 µM (inactive) | > 100 µM (inactive) | > 100 µM (inactive) | > 100 µM (inactive) | > 100 µM (inactive) | > 100 µM (inactive) | > 100 µM (inactive) | > 100 µM (inactive) | > 100 µM (inactive) | > 100 µM (inactive) | > 100 µM (inactive)
COC(=O)C12CCC(CC1=O)C2(C)C (stereo unspecified) | > 100 µM (inactive) | > 100 µM (inactive) | > 100 µM (inactive) | > 100 µM (inactive) | > 100 µM (inactive) | > 100 µM (inactive) | > 100 µM (inactive) |  | > 100 µM (inactive) | > 100 µM (inactive) | > 100 µM (inactive) | > 100 µM (inactive) | > 100 µM (inactive) | > 100 µM (inactive) | > 100 µM (inactive) | > 100 µM (inactive) | > 100 µM (inactive) | 
CC(=O)OC1CC2(c3ccccc3)C(=O)c3ccccc3N2O1 (stereo unspecified) | > 100 µM (inactive) | > 100 µM (inactive) | > 100 µM (inactive) | > 100 µM (inactive) | > 100 µM (inactive) | > 100 µM (inactive) | > 100 µM (inactive) | > 100 µM (inactive) | > 100 µM (inactive) | > 100 µM (inactive) | > 100 µM (inactive) | > 100 µM (inactive) | > 100 µM (inactive) | > 100 µM (inactive) | > 100 µM (inactive) | > 100 µM (inactive) | > 100 µM (inactive) | 
N#CC(C(=O)C(N)=O)c1ccccc1Cl (stereo unspecified) | > 100 µM (inactive) | > 100 µM (inactive) | > 100 µM (inactive) | > 100 µM (inactive) | > 100 µM (inactive) | > 100 µM (inactive) | > 100 µM (inactive) |  | > 100 µM (inactive) | > 100 µM (inactive) | > 100 µM (inactive) | > 100 µM (inactive) | > 100 µM (inactive) | > 100 µM (inactive) | > 100 µM (inactive) |  | > 100 µM (inactive) | > 100 µM (inactive)
